We go through nine compounds from ChEMBL document CHEMBL3769343, “Spiromastilactones: A new class of influenza virus inhibitors from deep-sea fungus” (Eur J Med Chem, 2016).

In data set [1] the test system is Influenza A virus (A/WSN/1933(H1N1)). Briefly: Binding affinity to Influenza A virus A/WSN/33 (H1N1) HA1 protein by surface plasmon resonance assay. In general terms: SPR reads the build-up and loss of mass on a sensor chip optically.
Data set [2] has as its system Influenza A virus. Put plainly: Antiviral activity against Influenza A virus A/WSN/1933 (H1N1) infected in MDCK cells assessed as protection against virus induced cytopathic effect after 40 hrs by Celltiter-Glo assay. Format: functional, organism-based. In general terms: Damage to the host cells serves as the signal in cytopathic effect assays.
The nature of data set [3]: Cytotoxicity against MDCK cells after 40 hrs by Celltiter-Glo assay. It is filed as cell-based, Canis lupus familiaris. As to conditions: dog. On the technique in general: In ATP-based viability assays light output follows the ATP content of the culture.
Data set [4] in a line: Inhibition of Influenza A virus A/WSN/33 (H1N1) HA1 protein by surface plasmon resonance assay. Set-up: species or system Influenza A virus (A/WSN/1933(H1N1)).
Data set [5] has as its system Influenza B virus. Briefly: Antiviral activity against influenza B virus B/SZ/155 infected in dog MDCK cells assessed as inhibition of virus induced cytopathic effect after 40 hrs by Cell-Titer-Glo assay. Format: functional, organism-based. As to conditions: B/SZ/155, MDCK.
The subject of data set [6] is Influenza A virus (A/WSN/1933(H1N1)). Put plainly: Binding affinity to Influenza A virus A/WSN/33 (H1N1) HA1 protein assessed as decrease in protein affinity to sialic acid receptor at 0.625 uM by surface plasmon resonance assay.
The test system is the same in data set [7]. Put plainly: Binding affinity to Influenza A virus A/WSN/33 (H1N1) HA1 protein assessed as decrease in protein affinity to sialic acid receptor at 20 uM by surface plasmon resonance assay relative to control.
Data set [8] shares this test system. Put plainly: Binding affinity to Influenza A virus A/WSN/33 (H1N1) HA1 protein assessed as decrease in protein affinity to sialic acid receptor by measuring association constant by surface plasmon resonance assay (reference value: 20810/s).
A short description of data set [9]: Binding affinity to Influenza A virus A/WSN/33 (H1N1) HA1 protein assessed as decrease in protein affinity to sialic acid receptor by measuring dissociation constant by surface plasmon resonance assay (reference value: 0.001473/Ms). Set-up: species or system Influenza A virus (A/WSN/1933(H1N1)).
For data set [10], the system named is Influenza A virus (A/WSN/1933(H1N1)). Briefly: Binding affinity to Influenza A virus A/WSN/33 (H1N1) HA1 protein assessed as decrease in protein affinity to sialic acid receptor at 10 uM by surface plasmon resonance assay.
The test system is the same in data set [11]. Briefly: Binding affinity to Influenza A virus A/WSN/33 (H1N1) HA1 protein assessed as decrease in protein affinity to sialic acid receptor at 2.5 uM by surface plasmon resonance assay.
For data set [12] the test system is unchanged. Put plainly: Binding affinity to Influenza A virus A/WSN/33 (H1N1) HA1 protein assessed as decrease in protein affinity to sialic acid receptor at 1.25 uM by surface plasmon resonance assay.
For data set [13] the test system is unchanged. Briefly: Binding affinity to Influenza A virus A/WSN/33 (H1N1) HA1 protein assessed as decrease in protein affinity to sialic acid receptor at 5 uM by surface plasmon resonance assay.
Data set [14] is described as follows: Binding affinity to Influenza A virus A/WSN/33 (H1N1) HA1 protein assessed as decrease in protein affinity to sialic acid receptor by surface plasmon resonance assay (reference value: 70 nM). On the set-up: species or system Influenza A virus (A/WSN/1933(H1N1)).
For data set [15], the system named is Influenza A virus (A/WSN/1933(H1N1)). Put plainly: Binding affinity to Influenza A virus A/WSN/33 (H1N1) HA1 protein assessed as decrease in protein affinity to sialic acid receptor at 20 uM by surface plasmon resonance assay.
Data set [16] has as its system Influenza A virus. Put plainly: Antiviral activity against Influenza A virus A/WSN/33 (H1N1) infected in dog MDCK cells assessed as reduction in nucleoprotein level at 100 uM measured at 5 to 8 hrs by Western blot analysis relative to control. The note with it: A/WSN/1933(H1N1). It is filed as functional, organism-based.
Data set [17] deals with Influenza A virus (A/WSN/1933(H1N1)). Briefly: Inhibition of Influenza A virus A/WSN/33 (H1N1) HA1 protein assessed as inhibition of virus induced aggregation of chicken erythrocytes after 30 mins.
Data set [18] deals with HeLa. Briefly: Binding affinity to Influenza A virus A/WSN/33 (H1N1) HA2 protein assessed as polykaryon formation in human HeLa cells preincubated with test compound for 15 mins followed by further test compound addition at pH 4.9 for 15 mins by crystal violet staining-based microscopic analysis. It is filed as cell-based. As to conditions: Influenza A virus (A/WSN/1933(H1N1)).

In data set [19] the test system is HEK-293T. Briefly: Effect on renilla luciferase expressed in HEK293T cells at 6.25 to 50 uM after 48 hrs. Format: cell-based.
The subject of data set [20] is Influenza A virus. Briefly: Antiviral activity against Influenza A virus A/WSN/33 (H1N1) assessed as inhibition of viral infection in dog MDCK cells at 50 uM after 36 hrs. It is filed as functional. The note with it: A/WSN/1933(H1N1).
The test system of data set [21] is Influenza A virus. Put plainly: Antiviral activity against Influenza A virus A/WSN/33 (H1N1) infected in dog MDCK cells assessed as reduction in nucleoprotein level at 100 uM measured at 2 to 5 hrs by Western blot analysis relative to control. As to conditions: A/WSN/1933(H1N1). It is filed as functional, organism-based.
The subject of data set [22] is Influenza A virus. Put plainly: Antiviral activity against Influenza A virus A/WSN/33 (H1N1) infected in dog MDCK cells assessed as reduction in nucleoprotein level at 100 uM measured over 2 hrs by Western blot analysis relative to control. Format: functional, organism-based. The note with it: A/WSN/1933(H1N1).
Data set [23] has as its system Influenza A virus. Put plainly: Antiviral activity against Influenza A virus A/WSN/33 (H1N1) infected in human A549 cells assessed as inhibition of (+)cRNA production after 7 hrs by qRT-PCR analysis. As to conditions: A/WSN/1933(H1N1). Format: functional, organism-based.
Data set [24] concerns Influenza A virus (A/WSN/1933(H1N1)). Briefly: Binding affinity to Influenza A virus A/WSN/33 (H1N1) HA1 protein assessed as decrease in protein affinity to sialic acid receptor at 40 uM by surface plasmon resonance assay relative to control.
The subject of data set [25] is Influenza A virus. Briefly: Antiviral activity against Influenza A virus A/WSN/33 (H1N1) infected in dog MDCK cells assessed as reduction in nucleoprotein level at 100 uM measured at 8 to 10 hrs by Western blot analysis relative to control. Format: functional, organism-based. The note with it: A/WSN/1933(H1N1).
The test system of data set [26] is Influenza A virus. Put plainly: Antiviral activity against Influenza A virus A/WSN/33 (H1N1) assessed as inhibition of viral infection in dog MDCK cells at 50 uM pretreated with virus for 30 mins followed by host cell inoculation for 1 hr measured after 36 hrs. Format: functional. The note with it: A/WSN/1933(H1N1).
Data set [27] concerns HEK-293T. Briefly: Inhibition of Influenza A virus RNP infected in HEK293T cells assessed as decrease in ratio of Fluc to Rluc. The note with it: Influenza A virus (A/WSN/1933(H1N1)). Format: cell-based.
Data set [28] relates to Influenza A virus. Put plainly: Antiviral activity against Influenza A virus A/WSN/33 (H1N1) infected in dog MDCK cells assessed as reduction in nucleoprotein level at 100 uM measured over 10 hrs by Western blot analysis relative to control. As to conditions: A/WSN/1933(H1N1). Format: functional, organism-based.
Data set [29] concerns Influenza A virus. Briefly: Antiviral activity against Influenza A virus A/WSN/33 (H1N1) assessed as inhibition of viral infection in dog MDCK cells at 50 uM pretreated with cells for 30 mins followed by exposure to virus for 1 hr measured after 36 hrs. Format: functional. As to conditions: A/WSN/1933(H1N1).
The test system of data set [30] is Influenza A virus. Briefly: Antiviral activity against Influenza A virus A/WSN/33 (H1N1) infected in human A549 cells assessed as inhibition of mRNA of M1 segment production after 7 hrs by qRT-PCR analysis. Format: functional, organism-based. The note with it: A/WSN/1933(H1N1).
A short description of data set [31]: Binding affinity to Influenza A virus H3N2 HA3 protein by surface plasmon resonance assay.
For data set [32], the system named is A549. Put plainly: Binding affinity to Influenza A virus A/WSN/33 (H1N1) HA1 protein assessed as inhibition of virus attachment to human A549 cells at 10 to 50 uM after 1 hr by DAPI staining based immunofluorescence microscopic analysis. It is filed as cell-based. The note with it: Influenza A virus (A/WSN/1933(H1N1)).
Data set [33] concerns Influenza A virus. Put plainly: Antiviral activity against Influenza A virus A/WSN/33 (H1N1) infected in human A549 cells assessed as inhibition of (-)vRNA production after 7 hrs by qRT-PCR analysis. The note with it: A/WSN/1933(H1N1). Format: functional, organism-based.
Data set [34] has as its system Influenza A virus. Put plainly: Antiviral activity against Influenza A virus A/WSN/33 (H1N1) infected in dog MDCK cells assessed as inhibition of viral nucleoprotein synthesis after 6 hrs by DAPI staining based immunofluorescence microscopy. It is filed as functional, organism-based. As to conditions: A/WSN/1933(H1N1).
Data set [35] in a line: Binding affinity to influenza B virus HA1 protein by surface plasmon resonance assay.

Activity calls are given as the source filed them. The calls are words filed in the database; no cut-off is given here.

`CCCc1cc(O)c(Cl)c(O)c1Oc1c(Cl)c(O)c(Cl)c2c1C(=O)O[C@@H]2CC`: in data set [1], the Ka worked out at 0.67 ×10⁴ /Ms. Also, the IC50 in data set [2] and in [4] was 30.7 µM each time. Further, the CC50 at 40 h in data set [3] is > 100 µM.

With `CCCc1c(Cl)c(OC)cc(O)c1Oc1c(Cl)c(O)c(Cl)c2c1C(=O)O[C@@H]2CC`, the half-inhibitory concentration (IC50) in [2] was > 50 µM. The CC50 at 40 h in data set [3] is > 50 µM.

As for `CCCc1c(Cl)c(O)c(Cl)c(O)c1Oc1c(Cl)c(O)c(Cl)c2c1C(=O)O[C@@H]2CC`, the IC50 in data set [2] stood at 38.2 µM. In addition, the CC50 at 40 h in data set [3] is > 50 µM.

Consider `CCCc1cc(O)cc(O)c1Oc1c(Cl)c(O)c(Cl)c2c1C(=O)O[C@@H]2CC`, for which, in data set [2], the IC50 is > 100 µM. Moreover, in data set [3], the CC50 at 40 h is > 100 µM.

Take `CC[C@H]1OC(=O)c2c(O)c(Cl)c(O)c(Cl)c21`: the IC50 in data set [2] is > 100 µM. Further, the CC50 at 40 h in data set [3] was > 100 µM.

As for `NC(=O)c1ncn([C@@H]2O[C@H](CO)[C@@H](O)[C@H]2O)n1` [RIBAVIRIN], the EC50 in [5] was 4.28 µM. Also, the half-maximal cytotoxic concentration (CC50) at 40 h in data set [3] was > 200 µM.

Take `CCCc1c(Cl)c(O)cc(O)c1Oc1c(Cl)c(O)c(Cl)c2c1C(=O)O[C@@H]2CC`: in [2], the IC50 was 27.6 µM. Besides, the 50% cytotoxic concentration (CC50) at 40 h in [3] was > 50 µM.

As to `COc1cc(/C=C/C(=O)CC(=O)/C=C/c2ccc(O)c(OC)c2)ccc1O` [CURCUMIN], the Activity was found to be 0.8 RU in data set [6]; 36.4 RU in data set [10]; 6.8 RU in [11]; 2.7 RU in data set [12]; 16.1 RU in [13]; 78.8 RU in data set [15]. Also, the fold change (FC) in [7] was found to be 8. Further, the Ka in data set [8] came to 2660 s⁻¹. Moreover, the Kd worked out at 0.001351 M⁻¹ s⁻¹ in data set [9] and 0.507 µM in data set [14].

Turning to `CCCc1c(Cl)c(O)cc(OC)c1Oc1c(Cl)c(O)c(Cl)c2c1C(=O)O[C@@H]2CC`, the result in data set [16], in data set [21], in data set [22] and in data set [28] was Active. The Activity is 3.3 RU in data set [6]; 44.8 RU in data set [10]; 10.3 RU in data set [11]; 5.4 RU in data set [12]; 21 RU in [13]; 98.2 RU in [15]. For the same compound, the inhibition result in data set [17], in data set [23], in [30], in [33] and in data set [34] was “Dose-dependent effect” throughout. Besides, the outcome in data set [18], in [19] and in [25] was inactive. For the same compound, the inhibition at 50 µM stood at 90% in data set [20], 40% in data set [26] and 25% in [29]. For the same compound, the figures for the Ka in [1] and in data set [8] were 2.3 ×10⁴ /Ms and 3420 s⁻¹, respectively. The IC50 in data set [2] and in [4] was 6 µM throughout. Also, the Kd was 0.00187 M⁻¹ s⁻¹ in [9], 18 µM in [31], 0.547 µM in data set [14] and 14 µM in data set [35]. For the same compound, the fold change (FC) in data set [24] amounted to 8. Besides, the inhibition result in data set [27] and in data set [32] was “Active” throughout. The EC50 in data set [5] came to 32 µM. Besides, in data set [3], the CC50 at 40 h is > 100 µM.

As a reminder, the IC50 is the concentration that inhibits the measured activity by half. One may read the CC50 as the concentration at which the toxic effect on the cells reaches its halfway point. For orientation: EC50 means the midpoint of the concentration-response curve. The term inhibition denotes the percentage by which the read-out fell short of the control.
